One test addresses Collagenase 3 (Homo sapiens, UniProt P45452). The test is described as follows: Inhibition of matrix metalloprotease-13.
Test [1] has as its target 72 kDa type IV collagenase (Homo sapiens, UniProt P08253). The test is described as follows: Inhibition of Matrix metalloprotease-2.
Test [2] concerns the target Matrix metalloproteinase-9 (Homo sapiens, UniProt P14780). In words: Inhibition of Matrix metalloprotease-9.
Test [3] addresses Matrix metalloproteinase-14 (Homo sapiens, UniProt P50281). The test is described as follows: Inhibition of Matrix metalloprotease-14.
A further test has as its target Neutrophil collagenase (Homo sapiens, UniProt P22894). The test is described as follows: Inhibition of matrix metalloprotease-8.
The next test deals with T1, Stromelysin-3 (Mus musculus, UniProt Q02853).
T1 sequence (Q02853 whole entry): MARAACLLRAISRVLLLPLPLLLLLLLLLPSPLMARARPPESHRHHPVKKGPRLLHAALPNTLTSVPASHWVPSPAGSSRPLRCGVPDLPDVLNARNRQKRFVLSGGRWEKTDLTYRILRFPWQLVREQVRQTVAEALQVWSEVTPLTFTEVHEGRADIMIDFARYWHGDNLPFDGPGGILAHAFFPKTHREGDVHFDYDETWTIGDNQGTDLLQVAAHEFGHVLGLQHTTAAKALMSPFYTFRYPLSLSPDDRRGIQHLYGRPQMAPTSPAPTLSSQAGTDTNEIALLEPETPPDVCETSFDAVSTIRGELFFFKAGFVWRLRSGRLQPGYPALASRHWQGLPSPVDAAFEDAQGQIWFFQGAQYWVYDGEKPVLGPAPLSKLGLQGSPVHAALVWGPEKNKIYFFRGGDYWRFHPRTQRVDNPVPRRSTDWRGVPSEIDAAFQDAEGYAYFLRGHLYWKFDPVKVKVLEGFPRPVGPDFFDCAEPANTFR
The test is described as follows: Inhibition of Matrix metalloprotease-11.

The target of a further test is T2, Matrilysin (Homo sapiens, UniProt P09237).
T2 sequence (P09237 whole entry): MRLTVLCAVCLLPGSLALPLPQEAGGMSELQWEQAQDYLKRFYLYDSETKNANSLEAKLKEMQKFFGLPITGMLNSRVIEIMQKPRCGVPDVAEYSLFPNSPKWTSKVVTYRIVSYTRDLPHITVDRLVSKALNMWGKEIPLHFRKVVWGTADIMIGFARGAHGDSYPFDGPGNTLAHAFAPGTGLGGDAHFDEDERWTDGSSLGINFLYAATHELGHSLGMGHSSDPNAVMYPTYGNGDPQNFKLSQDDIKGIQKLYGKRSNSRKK
In words: Inhibition of Matrix metalloprotease-7.

The next test addresses T3, Interstitial collagenase (Homo sapiens, UniProt P03956).
T3 sequence (P03956 whole entry): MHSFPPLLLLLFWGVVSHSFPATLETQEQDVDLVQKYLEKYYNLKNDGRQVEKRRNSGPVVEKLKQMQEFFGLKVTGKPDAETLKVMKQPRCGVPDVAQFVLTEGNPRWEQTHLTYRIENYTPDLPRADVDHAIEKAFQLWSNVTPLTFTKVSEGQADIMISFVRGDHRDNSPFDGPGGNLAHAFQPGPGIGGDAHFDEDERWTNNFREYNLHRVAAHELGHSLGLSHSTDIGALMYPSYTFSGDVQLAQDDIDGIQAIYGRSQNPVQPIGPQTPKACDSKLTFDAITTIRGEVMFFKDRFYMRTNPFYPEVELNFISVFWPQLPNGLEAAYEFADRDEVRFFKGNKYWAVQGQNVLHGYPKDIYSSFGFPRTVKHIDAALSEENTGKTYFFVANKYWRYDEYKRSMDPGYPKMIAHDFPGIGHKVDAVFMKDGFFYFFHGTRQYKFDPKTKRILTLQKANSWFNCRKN
The test is described as follows: Inhibition of matrix metalloprotease-1.

Molecules are shown by their SMILES. pKi: −log10 of the molar value. Bounds are passed on as bounds.

Chain of Neutrophil collagenase (P22894 whole entry): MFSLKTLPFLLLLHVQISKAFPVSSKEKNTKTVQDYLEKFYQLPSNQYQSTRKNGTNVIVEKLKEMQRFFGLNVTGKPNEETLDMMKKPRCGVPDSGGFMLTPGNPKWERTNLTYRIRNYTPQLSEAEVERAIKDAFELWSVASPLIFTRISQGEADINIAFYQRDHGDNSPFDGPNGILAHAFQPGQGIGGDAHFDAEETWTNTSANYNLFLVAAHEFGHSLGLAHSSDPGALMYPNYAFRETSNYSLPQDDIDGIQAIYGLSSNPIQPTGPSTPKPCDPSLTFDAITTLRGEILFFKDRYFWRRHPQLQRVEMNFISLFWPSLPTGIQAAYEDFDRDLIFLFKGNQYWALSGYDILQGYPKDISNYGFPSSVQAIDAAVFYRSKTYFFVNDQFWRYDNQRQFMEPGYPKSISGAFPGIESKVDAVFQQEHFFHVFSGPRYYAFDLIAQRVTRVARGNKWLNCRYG
Chain of Matrix metalloproteinase-9 (P14780 whole entry): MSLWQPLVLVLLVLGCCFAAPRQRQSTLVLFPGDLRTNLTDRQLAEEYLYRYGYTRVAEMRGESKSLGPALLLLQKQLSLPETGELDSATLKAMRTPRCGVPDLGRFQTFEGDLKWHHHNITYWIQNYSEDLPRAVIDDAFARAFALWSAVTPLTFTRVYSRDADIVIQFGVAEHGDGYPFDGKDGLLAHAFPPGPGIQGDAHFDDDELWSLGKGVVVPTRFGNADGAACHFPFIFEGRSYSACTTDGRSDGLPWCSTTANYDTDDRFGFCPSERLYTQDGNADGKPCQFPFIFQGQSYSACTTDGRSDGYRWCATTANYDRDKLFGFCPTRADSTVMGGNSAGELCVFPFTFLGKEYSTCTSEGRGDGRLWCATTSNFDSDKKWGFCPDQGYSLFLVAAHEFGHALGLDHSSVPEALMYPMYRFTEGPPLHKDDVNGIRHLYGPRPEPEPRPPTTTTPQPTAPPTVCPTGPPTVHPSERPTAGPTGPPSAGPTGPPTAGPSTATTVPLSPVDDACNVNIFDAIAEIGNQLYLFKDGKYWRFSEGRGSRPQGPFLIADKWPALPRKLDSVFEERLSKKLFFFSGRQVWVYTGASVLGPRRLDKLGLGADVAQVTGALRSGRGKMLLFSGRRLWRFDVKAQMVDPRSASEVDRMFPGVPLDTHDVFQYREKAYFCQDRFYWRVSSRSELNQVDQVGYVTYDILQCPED
Chain of 72 kDa type IV collagenase (P08253 whole entry): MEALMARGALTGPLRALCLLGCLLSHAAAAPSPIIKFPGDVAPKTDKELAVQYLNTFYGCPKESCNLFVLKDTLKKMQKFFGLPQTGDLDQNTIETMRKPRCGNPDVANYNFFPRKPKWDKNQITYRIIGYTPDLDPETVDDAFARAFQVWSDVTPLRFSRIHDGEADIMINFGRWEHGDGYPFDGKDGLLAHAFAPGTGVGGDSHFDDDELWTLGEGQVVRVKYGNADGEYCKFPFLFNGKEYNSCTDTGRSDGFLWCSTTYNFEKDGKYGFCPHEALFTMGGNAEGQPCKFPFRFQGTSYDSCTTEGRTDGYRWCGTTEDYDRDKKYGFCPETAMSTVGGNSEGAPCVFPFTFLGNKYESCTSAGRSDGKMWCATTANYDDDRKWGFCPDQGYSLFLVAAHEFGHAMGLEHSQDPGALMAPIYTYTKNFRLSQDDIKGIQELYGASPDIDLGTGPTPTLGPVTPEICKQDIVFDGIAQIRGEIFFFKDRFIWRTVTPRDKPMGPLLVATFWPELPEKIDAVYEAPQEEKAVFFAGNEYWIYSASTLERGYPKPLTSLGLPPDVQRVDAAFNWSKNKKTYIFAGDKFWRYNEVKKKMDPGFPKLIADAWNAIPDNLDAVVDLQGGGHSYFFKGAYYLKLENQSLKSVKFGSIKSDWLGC

For orientation: pKi means the Ki on a negative log10 scale, so that one unit is a factor of ten. A low value points to a large Ki. As for `COc1ccccc1SCC(CP(=O)(O)C(Cc1ccccc1)NC(=O)OCc1ccccc1)C(=O)NC(Cc1c[nH]c2ccccc12)C(N)=O` (stereo not given), the pKi was 4.80 at Collagenase 3; 4.52 in test [1]; 4.45 in test [2]; 3.80 in test [3]; 4.41 on Neutrophil collagenase; 6.64 on Stromelysin-3.
On to `NC(=O)C(Cc1c[nH]c2ccccc12)NC(=O)C(CCCc1ccccc1)CP(=O)(O)C(Cc1ccccc1)NC(=O)OCc1ccccc1` (stereo not given), for which the negative logarithm of the Ki (pKi) on Matrilysin and at Interstitial collagenase was under 5.70 each time.
Take `NC(=O)C(Cc1c[nH]c2ccccc12)NC(=O)C(CSc1ccccc1Br)CP(=O)(O)C(Cc1ccccc1)NC(=O)OCc1ccccc1` (stereo not given): the negative-log Ki (pKi) at Collagenase 3 is 5.33; in test [1], 5.33; in test [2], 5.41; in test [3] it was 4.52; at Neutrophil collagenase it was 4.74; at Stromelysin-3, 6.96.
As for `NC(=O)C(Cc1c[nH]c2ccccc12)NC(=O)C(CSc1ccccc1OC(F)(F)F)CP(=O)(O)C(Cc1ccccc1)NC(=O)OCc1ccccc1` (stereo not given), the negative-log Ki (pKi) was 3.70 on Collagenase 3; 3.70 in test [1]; 3.83 in test [2]; 4.52 in test [3]; 3.70 on Neutrophil collagenase; 6.39 on Stromelysin-3.
